Structures can show the parent of a compound that is named as a salt.
Assays:
[1] = test system: naive adult male Sprague-Dawley rats; assay: Rat licking (Vogel conflict) test for anxiolytic activity; assay type: in vivo; settings: subcutaneous, 30 min before test, control 119 ± 30
Method: Following the procedure described by Vogel et al., Psychopharmacologia 21, 1-7 (1971), thirsty naive rats are periodically administered shocks in an appropriate test apparatus for licking water, thereby setting up a simple conflict procedure. In the following experiment, naive adult male Sprague-Dawley rats (approximately 170 g) are randomly divided into 5 groups and deprived of water for 48 hours prior to the test session. Food is available in the home cage at all times.
Thirty minutes following subcutaneous injection, each animal is placed in the apparatus, permitted to find the drinking tube and complete 20 licks before shock is administered. The test animal controls shock duration by withdrawing from the drinking tube. At the termination of the first shock, shocks are delivered following each twentieth lick. The number of licks, indicating the number of shocks taken during a 3 minute period is recorded for each animal, compared with placebo, and with animals treated with established anxiolytic agents. A "release" from suppressed licking response, i.e., a greater number of licks compared to controls, is predictive of anxiolytic activity.
Following essentially this same procedure, the following results are observed utilizing the compound of Example II, i.e., 2-[4-[4-(2-pyrimidinyl)-1-piperazinyl]butylimino]-tetrahydro-4,4-dimethyl- 6H-1,3-thiazin-6-one

5-HT1A recognition sites = biological target: T1, 5-HT1A recognition sites (Rattus norvegicus, UniProt P19327); assay: 5-HT1A radioligand binding ([3H]-8-OH-DPAT); settings: rat frontal cortex homogenate, 37° C. 15 min, read-out: 5-HT1A Binding Affinity Rat Brain Cortex (pIC50) (converted)
T1 sequence (P19327 1-422): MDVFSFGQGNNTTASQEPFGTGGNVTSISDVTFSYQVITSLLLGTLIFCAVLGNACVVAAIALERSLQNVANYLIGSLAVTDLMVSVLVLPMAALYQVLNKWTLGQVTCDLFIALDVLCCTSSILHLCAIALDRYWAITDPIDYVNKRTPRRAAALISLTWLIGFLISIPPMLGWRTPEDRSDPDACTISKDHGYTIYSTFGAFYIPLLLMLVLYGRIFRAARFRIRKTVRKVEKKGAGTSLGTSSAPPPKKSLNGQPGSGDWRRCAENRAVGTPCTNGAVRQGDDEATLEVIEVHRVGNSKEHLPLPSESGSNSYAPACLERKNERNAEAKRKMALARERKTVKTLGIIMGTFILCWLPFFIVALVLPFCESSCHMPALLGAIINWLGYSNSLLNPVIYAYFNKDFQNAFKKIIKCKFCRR
Method: Radioligand binding studies of the 5-HT1A recognition sites are conducted in the following manner. Male normotensive Sprague-Dawley rat frontal cortex is dissected, frozen in liquid nitrogen and stored at -20° C. until needed. Tissues from 4-8 rats are pooled and homogenized in 70 vol Tris-HCl buffer (50 mM, pH 7.7), using a kinematica Polytron (setting 2/3 max speed, 20 sec). The homogenate is centrifuged (36500×g for 10 min), the pellet re-homogenised in the same volume of buffer and the process is repeated two more times. Between the second and third centrifugations the tissue homogenate is incubated at 37° C. for 10 min. The final pellet is suspended in the same volume of Tris buffer containing 10 µM pargyline, 5.7 mM CaCl2 and 0.1% ascorbic acid. This suspension is incubated for 10 min at 37° C. and then stored on ice until used in the binding assay.
Tissue homogenate (0.7 ml), radioactive ligand (0.1 ml) and the appropriate concentration of test compound (0.1 ml), together with buffer to a final volume of 1 ml are incubated at 37° C. for 15 min. Incubations are terminated by rapid filtration through Whatman GF/B filters followed by three 5 ml washes with ice-cold Tris-HCl buffer (50 mM, pH 7.0). Radioactivity is measured following extraction into Aquasol-Z (NEN) at an efficiency of 45-50%. The radioligand used to label the 5-HT1A recognition sites and its concentration is [^3 H]-8-hydroxy-2-(di-n-propylamino)-tetralin, [^3 H]-8-OH-DPAT, […].
Following essentially the above procedure, the following compounds were tested. Results are expressed as pIC50 ([…] concentration of test compound which inhibits specific binding by 50%).

Structure (SMILES)	Licks taken over 3 min. period ([1]; dose 0.75 mg/kg)	IC50 (5-HT1A recognition sites)	Licks taken over 3 min. period ([1]; dose 0.05 mg/kg)	Licks taken over 3 min. period ([1]; dose 0.25 mg/kg)	Licks taken over 3 min. period ([1]; dose 1.25 mg/kg)
CN1C(=O)CN=C(c2ccccc2)c2cc(Cl)ccc21 [Diazepam, reference compound]	247 ± 36				
CC1(C)CC(=O)SC(=NCCCCNCC2COc3ccccc3O2)N1 (stereo not shown) [Example I, 2-[4-[(2,3-dihydro-1,4-benzodioxin-2-yl)methylamino]butylimino]-tetrahydro-4,4-dimethyl-6H-1,3-thiazin-6-one oxalate]		2.82 nM			
CC1(C)CC(=O)SC(=NCCCCN2CCN(c3ncccn3)CC2)N1 [Example II, 2-[4-[4-(2-Pyrimidinyl)-1-piperazinyl]butylimino]-tetrahydro4,4-dimethyl-6H-1,3-thiazin-6-one]		47.9 nM	150 ± 28	223 ± 34	220 ± 27
O=C1CC2(CCCC2)NC(=NCCCCN2CCN(c3ncccn3)CC2)S1 [Example III, 2-[4-[4-(2-Pyrimidinyl)-1-piperazinyl]-butylimino]-tetrahydro-4,4-tetramethylene-6H-1,3-thiazin-6-one]		166 nM			

From patent US4704389A, “Aromatic omega-alkyl-imino-tetrahydro-6H-1,3-thiazin-6-one derivatives” (Merrell Dow Pharmaceuticals Inc., priority 1987, dated 1987)
